Measured values from the kinase profiling compilation of Christmann-Franck et al. (2016).

Legend:
Test in all cases: Caliper, Mobility shift assay off-chip
AXL (human) = AXL (human) (UniProt P30530)
BLK (human) = BLK (human) (UniProt P51451)
CAMK2A (human) = CAMK2A (human) (UniProt Q9UQM7); settings: compound 1.0 µM
CDK1 (human) = CDK1 (human) (UniProt P06493)
CDK5 CDK5R1 p25 (human) = CDK5 CDK5R1 p25 (human) (UniProt Q15078+Q00535)
CLK2 (human) = CLK2 (human) (UniProt P49760)
DAPK1 (human) = DAPK1 (human) (UniProt P53355)
DAPK3 (human) = DAPK3 (human) (UniProt O43293)
DCLK1 (human) = DCLK1 (human) (UniProt O15075)
DYRK3 (human) = DYRK3 (human) (UniProt O43781)
Chain of DYRK3 (human) (O43781 whole entry, looked up): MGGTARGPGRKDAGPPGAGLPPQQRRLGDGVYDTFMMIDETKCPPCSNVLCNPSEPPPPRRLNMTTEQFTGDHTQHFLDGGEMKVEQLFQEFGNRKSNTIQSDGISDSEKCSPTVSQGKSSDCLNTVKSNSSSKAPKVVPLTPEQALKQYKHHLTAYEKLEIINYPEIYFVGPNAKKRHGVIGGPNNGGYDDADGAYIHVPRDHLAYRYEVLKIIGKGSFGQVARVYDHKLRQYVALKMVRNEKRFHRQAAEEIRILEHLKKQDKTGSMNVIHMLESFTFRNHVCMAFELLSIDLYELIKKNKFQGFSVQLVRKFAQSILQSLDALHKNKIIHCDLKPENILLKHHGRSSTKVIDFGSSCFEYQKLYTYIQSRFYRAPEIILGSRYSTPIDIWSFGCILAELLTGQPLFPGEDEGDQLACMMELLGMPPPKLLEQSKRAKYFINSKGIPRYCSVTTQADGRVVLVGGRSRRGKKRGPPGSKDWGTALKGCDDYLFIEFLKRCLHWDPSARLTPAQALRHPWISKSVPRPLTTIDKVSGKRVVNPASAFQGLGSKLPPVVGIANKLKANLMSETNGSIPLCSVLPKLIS

DYRK4 (human) = DYRK4 (human) (UniProt Q9NR20)
[1] = system: EGFR (human), P00533 [T790M]
EPHB1 (human) = EPHB1 (human) (UniProt P54762)
FGFR1 (human) = FGFR1 (human) (UniProt P11362)
[2] = system: FGFR3 (human), P22607 [K650E]
HIPK2 (human) = HIPK2 (human) (UniProt Q9H2X6)
ITK (human) = ITK (human) (UniProt Q08881)
Chain of ITK (human) (Q08881 whole entry, looked up): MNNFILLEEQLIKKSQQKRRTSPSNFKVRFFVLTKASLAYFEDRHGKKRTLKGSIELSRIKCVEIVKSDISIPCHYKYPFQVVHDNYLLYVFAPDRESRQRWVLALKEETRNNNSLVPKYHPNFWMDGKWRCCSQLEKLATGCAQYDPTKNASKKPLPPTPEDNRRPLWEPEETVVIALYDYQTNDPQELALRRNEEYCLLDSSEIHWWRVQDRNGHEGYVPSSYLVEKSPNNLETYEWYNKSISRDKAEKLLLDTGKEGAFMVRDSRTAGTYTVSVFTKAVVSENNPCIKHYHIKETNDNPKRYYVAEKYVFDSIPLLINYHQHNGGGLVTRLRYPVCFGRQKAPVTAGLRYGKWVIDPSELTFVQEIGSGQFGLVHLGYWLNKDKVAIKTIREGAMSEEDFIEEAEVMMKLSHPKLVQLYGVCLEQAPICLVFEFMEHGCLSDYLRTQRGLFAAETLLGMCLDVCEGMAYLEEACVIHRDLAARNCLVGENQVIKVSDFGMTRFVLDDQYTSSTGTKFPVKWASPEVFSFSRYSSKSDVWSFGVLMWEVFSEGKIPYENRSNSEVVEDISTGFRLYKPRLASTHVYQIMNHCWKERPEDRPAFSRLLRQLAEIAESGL

JAK2 JH1 JH2 (human) = JAK2 JH1 JH2 (human) (UniProt O60674)
KIT (human) = KIT (human) (UniProt P10721)
MARK4 (human) = MARK4 (human) (UniProt Q96L34)
Chain of MARK4 (human) (Q96L34 whole entry, looked up): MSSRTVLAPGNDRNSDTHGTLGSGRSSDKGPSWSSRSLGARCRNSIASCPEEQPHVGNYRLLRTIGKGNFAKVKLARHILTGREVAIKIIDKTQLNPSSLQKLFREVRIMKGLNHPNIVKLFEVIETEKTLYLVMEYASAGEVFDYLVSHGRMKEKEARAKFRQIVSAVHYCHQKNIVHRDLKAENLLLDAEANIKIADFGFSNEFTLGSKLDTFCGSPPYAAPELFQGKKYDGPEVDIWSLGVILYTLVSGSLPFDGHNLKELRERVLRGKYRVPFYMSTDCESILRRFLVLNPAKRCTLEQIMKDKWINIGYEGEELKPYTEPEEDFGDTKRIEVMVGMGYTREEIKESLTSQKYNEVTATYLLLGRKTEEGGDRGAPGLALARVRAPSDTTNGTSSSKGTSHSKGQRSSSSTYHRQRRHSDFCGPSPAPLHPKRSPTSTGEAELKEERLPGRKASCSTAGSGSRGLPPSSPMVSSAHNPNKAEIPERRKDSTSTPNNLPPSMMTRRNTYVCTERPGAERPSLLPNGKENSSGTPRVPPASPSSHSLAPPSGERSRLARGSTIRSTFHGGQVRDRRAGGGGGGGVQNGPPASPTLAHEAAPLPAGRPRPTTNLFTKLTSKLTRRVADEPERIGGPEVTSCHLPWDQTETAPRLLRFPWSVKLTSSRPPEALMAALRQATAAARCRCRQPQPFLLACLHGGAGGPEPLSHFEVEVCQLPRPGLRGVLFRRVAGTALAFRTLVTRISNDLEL

MST1R (human) = MST1R (human) (UniProt Q04912)
NTRK3 (human) = NTRK3 (human) (UniProt Q16288)
[3] = system: PDGFRA (human), P16234 [V561D]
PHKG1 (human) = PHKG1 (human) (UniProt Q16816)
Chain of PHKG1 (human) (Q16816 whole entry, looked up): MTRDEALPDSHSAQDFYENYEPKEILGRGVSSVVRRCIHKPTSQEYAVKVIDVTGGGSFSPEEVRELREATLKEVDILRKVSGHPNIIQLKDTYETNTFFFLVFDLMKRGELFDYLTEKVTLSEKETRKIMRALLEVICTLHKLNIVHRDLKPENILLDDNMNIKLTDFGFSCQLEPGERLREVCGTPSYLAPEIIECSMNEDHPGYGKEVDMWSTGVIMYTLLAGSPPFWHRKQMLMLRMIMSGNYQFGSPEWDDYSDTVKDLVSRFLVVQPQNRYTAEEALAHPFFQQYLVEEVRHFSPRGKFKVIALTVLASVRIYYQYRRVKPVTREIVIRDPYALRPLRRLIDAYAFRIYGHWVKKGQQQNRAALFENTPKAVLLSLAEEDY

PIM3 (human) = PIM3 (human) (UniProt Q86V86)
[4] = target: PRKAA2 PRKAB1 PRKAG1 (human) (UniProt Q9Y478+P54646+P54619)
Chain of PRKAA2 PRKAB1 PRKAG1 (human) (P54619 whole entry, looked up): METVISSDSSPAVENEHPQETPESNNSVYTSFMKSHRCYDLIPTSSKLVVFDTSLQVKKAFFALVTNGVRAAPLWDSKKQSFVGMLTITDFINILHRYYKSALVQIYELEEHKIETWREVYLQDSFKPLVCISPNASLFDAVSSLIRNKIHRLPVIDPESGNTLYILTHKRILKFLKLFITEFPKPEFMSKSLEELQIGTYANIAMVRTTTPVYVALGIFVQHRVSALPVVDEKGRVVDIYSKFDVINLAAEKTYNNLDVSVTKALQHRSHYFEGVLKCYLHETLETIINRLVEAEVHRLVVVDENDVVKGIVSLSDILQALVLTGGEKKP
Chain of PRKAA2 PRKAB1 PRKAG1 (human) (P54646 whole entry, looked up): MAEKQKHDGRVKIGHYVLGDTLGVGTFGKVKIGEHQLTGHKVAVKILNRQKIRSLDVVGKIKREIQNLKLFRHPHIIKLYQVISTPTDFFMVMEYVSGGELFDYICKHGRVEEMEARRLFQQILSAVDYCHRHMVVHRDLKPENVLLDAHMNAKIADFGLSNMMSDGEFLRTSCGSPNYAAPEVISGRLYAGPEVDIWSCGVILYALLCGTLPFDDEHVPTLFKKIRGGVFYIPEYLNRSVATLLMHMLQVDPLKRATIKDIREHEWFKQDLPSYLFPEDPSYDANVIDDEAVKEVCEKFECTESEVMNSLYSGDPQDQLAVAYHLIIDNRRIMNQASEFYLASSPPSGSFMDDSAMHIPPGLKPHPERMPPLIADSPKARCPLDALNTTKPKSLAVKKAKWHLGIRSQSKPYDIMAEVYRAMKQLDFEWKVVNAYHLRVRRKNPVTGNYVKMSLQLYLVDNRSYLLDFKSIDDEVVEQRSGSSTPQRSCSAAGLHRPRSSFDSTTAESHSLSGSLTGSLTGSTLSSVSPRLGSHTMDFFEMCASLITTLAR
Chain of PRKAA2 PRKAB1 PRKAG1 (human) (Q9Y478 whole entry, looked up): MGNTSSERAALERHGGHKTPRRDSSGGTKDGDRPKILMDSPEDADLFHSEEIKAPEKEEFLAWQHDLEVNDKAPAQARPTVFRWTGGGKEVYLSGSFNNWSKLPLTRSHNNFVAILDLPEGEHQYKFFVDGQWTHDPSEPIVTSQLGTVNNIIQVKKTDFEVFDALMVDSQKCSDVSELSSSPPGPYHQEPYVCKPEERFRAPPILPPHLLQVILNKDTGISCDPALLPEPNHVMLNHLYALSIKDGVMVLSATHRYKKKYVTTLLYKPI

PRKCI (human) = PRKCI (human) (UniProt P41743)
PTK2B (human) = PTK2B (human) (UniProt Q14289)
RET (human) = RET (human) (UniProt P07949)
ROS1 (human) = ROS1 (human) (UniProt P08922)
RPS6KA6 KD1 KD2 (human) = RPS6KA6 KD1 KD2 (human) (UniProt Q9UK32)
Chain of RPS6KA6 KD1 KD2 (human) (Q9UK32 whole entry, looked up): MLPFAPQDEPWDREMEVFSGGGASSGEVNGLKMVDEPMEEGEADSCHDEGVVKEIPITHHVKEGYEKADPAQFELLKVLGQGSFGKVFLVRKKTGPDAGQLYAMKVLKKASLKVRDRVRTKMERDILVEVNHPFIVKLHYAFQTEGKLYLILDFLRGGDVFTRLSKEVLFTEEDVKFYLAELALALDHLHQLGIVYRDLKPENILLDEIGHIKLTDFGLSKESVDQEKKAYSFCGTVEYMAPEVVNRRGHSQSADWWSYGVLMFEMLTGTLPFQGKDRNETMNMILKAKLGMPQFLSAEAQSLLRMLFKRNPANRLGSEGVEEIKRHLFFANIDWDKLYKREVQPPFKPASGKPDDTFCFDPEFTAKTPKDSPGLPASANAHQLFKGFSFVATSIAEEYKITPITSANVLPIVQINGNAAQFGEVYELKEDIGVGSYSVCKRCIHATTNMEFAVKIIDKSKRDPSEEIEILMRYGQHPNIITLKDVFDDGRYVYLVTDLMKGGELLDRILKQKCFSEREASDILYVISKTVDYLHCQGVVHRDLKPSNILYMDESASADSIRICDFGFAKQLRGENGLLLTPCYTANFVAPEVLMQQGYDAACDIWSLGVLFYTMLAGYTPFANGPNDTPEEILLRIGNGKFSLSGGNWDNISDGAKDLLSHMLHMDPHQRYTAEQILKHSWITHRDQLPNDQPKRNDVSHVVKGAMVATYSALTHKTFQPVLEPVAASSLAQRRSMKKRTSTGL

TXK (human) = TXK (human) (UniProt P42681)
Chain of TXK (human) (P42681 whole entry, looked up): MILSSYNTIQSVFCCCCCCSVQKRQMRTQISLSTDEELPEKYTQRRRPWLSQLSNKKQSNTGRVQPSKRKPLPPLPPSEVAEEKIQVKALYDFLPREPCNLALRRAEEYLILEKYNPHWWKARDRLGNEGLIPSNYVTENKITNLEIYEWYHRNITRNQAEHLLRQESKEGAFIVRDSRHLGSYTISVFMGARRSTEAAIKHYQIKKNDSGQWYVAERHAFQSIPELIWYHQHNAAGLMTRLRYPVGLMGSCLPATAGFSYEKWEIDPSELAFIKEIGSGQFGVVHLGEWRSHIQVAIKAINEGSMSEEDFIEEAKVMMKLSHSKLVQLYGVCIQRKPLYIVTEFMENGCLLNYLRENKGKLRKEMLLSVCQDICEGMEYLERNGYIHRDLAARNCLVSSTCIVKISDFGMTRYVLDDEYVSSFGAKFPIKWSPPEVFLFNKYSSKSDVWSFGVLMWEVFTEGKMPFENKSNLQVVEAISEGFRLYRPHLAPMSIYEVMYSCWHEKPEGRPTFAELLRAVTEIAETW

TYRO3 (human) = TYRO3 (human) (UniProt Q06418)

CN(c1ccc2ccc3ncc(-c4cnn(C)c4)cc3c(=O)c2c1)S(=O)(=O)NCc1ccccn1
inhibition (AXL (human); compound 0.1 µM): 30.6% | inhibition (AXL (human); compound 1.0 µM): 77.3% | inhibition (BLK (human); compound 0.1 µM): -30.4% | inhibition (BLK (human); compound 1.0 µM): 29.2% | inhibition (CAMK2A (human)): 4.4% | inhibition (CDK1 (human); compound 0.1 µM): 1.3% | inhibition (CDK1 (human); compound 1.0 µM): 4.7% | inhibition (CDK5 CDK5R1 p25 (human); compound 0.1 µM): -5.4% | inhibition (CDK5 CDK5R1 p25 (human); compound 1.0 µM): 11.9% | inhibition (CLK2 (human); compound 0.1 µM): 3.2% | inhibition (CLK2 (human); compound 1.0 µM): 16.8% | inhibition (DAPK1 (human); compound 0.1 µM): 3% | inhibition (DAPK1 (human); compound 1.0 µM): 9.2% | inhibition (DAPK3 (human); compound 0.1 µM): 5% | inhibition (DAPK3 (human); compound 1.0 µM): 10.3% | inhibition (DCLK1 (human); compound 0.1 µM): 3.5% | inhibition (DCLK1 (human); compound 1.0 µM): 5.9% | inhibition (DYRK3 (human); compound 0.1 µM): 9.6% | inhibition (DYRK3 (human); compound 1.0 µM): 21.5% | inhibition (DYRK4 (human); compound 0.1 µM): 16.9% | inhibition (DYRK4 (human); compound 1.0 µM): 1.3% | inhibition ([1]; compound 0.1 µM): 11.2% | inhibition ([1]; compound 1.0 µM): 1.9% | inhibition (EPHB1 (human); compound 0.1 µM): 1.8% | inhibition (EPHB1 (human); compound 1.0 µM): 9.7% | inhibition (FGFR1 (human); compound 0.1 µM): -11.4% | inhibition (FGFR1 (human); compound 1.0 µM): 26.7% | inhibition ([2]; compound 0.1 µM): 15.1% | inhibition ([2]; compound 1.0 µM): 59.4% | inhibition (HIPK2 (human); compound 0.1 µM): 8.7% | inhibition (HIPK2 (human); compound 1.0 µM): 14.7% | inhibition (ITK (human); compound 0.1 µM): 7% | inhibition (ITK (human); compound 1.0 µM): 34.9% | inhibition (JAK2 JH1 JH2 (human); compound 0.1 µM): -35.1% | inhibition (JAK2 JH1 JH2 (human); compound 1.0 µM): 41.2% | inhibition (KIT (human); compound 0.1 µM): -0.2% | inhibition (KIT (human); compound 1.0 µM): 8.9% | inhibition (MARK4 (human); compound 0.1 µM): 7.3% | inhibition (MARK4 (human); compound 1.0 µM): 16% | inhibition (MST1R (human); compound 0.1 µM): 23.8% | inhibition (MST1R (human); compound 1.0 µM): 78.2% | inhibition (NTRK3 (human); compound 0.1 µM): 39.3% | inhibition (NTRK3 (human); compound 1.0 µM): 83.6% | inhibition ([3]; compound 0.1 µM): 16.9% | inhibition ([3]; compound 1.0 µM): 61.1% | inhibition (PHKG1 (human); compound 0.1 µM): -1.3% | inhibition (PHKG1 (human); compound 1.0 µM): 17.4% | inhibition (PIM3 (human); compound 0.1 µM): 4% | inhibition (PIM3 (human); compound 1.0 µM): 0.2% | inhibition ([4]; compound 0.1 µM): 3.4% | inhibition ([4]; compound 1.0 µM): 17.6% | inhibition (PRKCI (human); compound 0.1 µM): 3.9% | inhibition (PRKCI (human); compound 1.0 µM): -0.5% | inhibition (PTK2B (human); compound 0.1 µM): -3.9% | inhibition (PTK2B (human); compound 1.0 µM): 3.2% | inhibition (RET (human); compound 0.1 µM): 7.4% | inhibition (RET (human); compound 1.0 µM): 44.1% | inhibition (ROS1 (human); compound 0.1 µM): 1% | inhibition (ROS1 (human); compound 1.0 µM): 12% | inhibition (RPS6KA6 KD1 KD2 (human); compound 0.1 µM): 0.5% | inhibition (RPS6KA6 KD1 KD2 (human); compound 1.0 µM): 5.6% | inhibition (TXK (human); compound 0.1 µM): 0.6% | inhibition (TXK (human); compound 1.0 µM): 19% | inhibition (TYRO3 (human); compound 0.1 µM): 20.2% | inhibition (TYRO3 (human); compound 1.0 µM): 66.3%
